In patent US8426422B2, “Apoptosis-inducing agents for the treatment of cancer and immune and autoimmune diseases” (Abbvie Inc., priority 2009, dated 2013):

Target: GST-Bcl-2 (Homo sapiens, UniProt P10415)
Experiment: Time Resolved-Fluorescence Resonance Energy Transfer (TR-FRET) Bcl-2 binding assay
Details: GST-Bcl-2 1 nM, F-Bak peptide probe 100 nM, Tb-anti-GST 1 nM; 3 hours at room temperature; Ki by Wang's equation
Description: Determination of the utility of compounds having Formula (I) as binders to and inhibitors of anti-apoptotic Bcl-2 proteins was performed using the Time Resolved-Fluorescence Resonance Energy Transfer (TR-FRET) Assay. Tb-anti-GST antibody was purchased from Invitrogen (Catalog No. PV4216).
Representative compounds were serially diluted in dimethyl sulfoxide (DMSO) starting at 50 μM (2x starting concentration; 10% DMSO) and 10 μL were transferred into a 384-well plate. The samples are then mixed on a shaker for 1 minute and incubated for an additional 3 hours at room temperature. For each assay, the probe/antibody and protein/probe/antibody were included on each assay plate as negative and positive controls, respectively. Fluorescence was measured on the ENVISION plate reader (Perkin Elmer) using a 340/35 nm excitation filter and 520/525 (F-Bak peptide) and 495/510 nm (Tb-labeled […] antibody) emission filters. Inhibition constants (Ki) are shown in TABLE 2 below and were determined using Wang's equation (Wang Z.-X. An Exact Mathematical Expression For Describing Competitive Binding Of Two Different Ligands To A Protein Molecule. FEBS Lett. 1995, 360:111-4).
The inhibition constant (Ki) is the dissociation constant of an enzyme-inhibitor complex or a protein/small molecule complex, wherein the small molecule is inhibiting binding of one protein to another protein. So a large Ki value indicates a low binding affinity and a small Ki value indicates a high binding affinity.
The compounds are therefore expected to have utility in treatment of diseases during which anti-apoptotic Bcl-2 protein is expressed.

Chain of GST-Bcl-2 (P10415 whole entry): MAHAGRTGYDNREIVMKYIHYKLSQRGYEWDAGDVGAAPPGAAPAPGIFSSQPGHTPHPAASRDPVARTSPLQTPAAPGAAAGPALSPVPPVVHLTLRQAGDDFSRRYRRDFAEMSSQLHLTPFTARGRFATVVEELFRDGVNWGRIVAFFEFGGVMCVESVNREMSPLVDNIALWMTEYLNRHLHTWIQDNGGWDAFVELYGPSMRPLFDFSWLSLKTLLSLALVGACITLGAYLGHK

SMILES | Ki
CC1(C)CCC(CN2CCN(c3ccc(C(=O)NS(=O)(=O)c4ccc5ccccc5c4)c(Oc4ccc5[nH]ccc5c4)c3)CC2)=C(c2ccc(Cl)cc2)C1 [Example 36, 4-(4-{[2-(4-chlorophenyl)-4,4-dimethylcyclohex-1-en-1-yl]methyl}piperazin-1-yl)-2-(1H-indol-5-yloxy)-N-(2-naphthylsulfonyl)benzamide] | 0.0317 µM
CC1(C)CCC(CN2CCN(c3ccc(C(=O)NS(=O)(=O)c4cccc5cnccc45)c(Oc4ccc5[nH]ccc5c4)c3)CC2)=C(c2ccc(Cl)cc2)C1 [Example 37, 4-(4-{[2-(4-chlorophenyl)-4,4-dimethylcyclohex-1-en-1-yl]methyl}piperazin-1-yl)-2-(1H-indol-5-yloxy)-N-(isoquinolin-5-ylsulfonyl)benzamide] | 0.0106 µM
CC1(C)CCC(CN2CCN(c3ccc(C(=O)NS(=O)(=O)c4ccc(Cl)c([N+](=O)[O-])c4)c(Oc4cccc5[nH]ncc45)c3)CC2)=C(c2ccc(Cl)cc2)C1 [Example 38, N-[(4-chloro-3-nitrophenyl)sulfonyl]-4-(4-{[2-(4-chlorophenyl)-4,4-dimethylcyclohex-1-en-1-yl]methyl}piperazin-1-yl)-2-(1H-indazol-4-yloxy)benzamide] | 0.000174 µM
